Patent US8541588B2, “Sulfonamide derivatives” (Pfizer Limited, priority 2009, dated 2013)

The compounds below were run against T1, Nav1.7 (or SCN9A) channel; HEK cells stably transfected with hSCN9A (Homo sapiens, UniProt Q15858) (assay: Nav1.7 block, PatchXpress 7000 automated whole-cell voltage clamp, estimated IC50 (EIC50)). Settings: estimated IC50; hSCN9A HEK cells, PatchXpress platform; Examples 283-814.
T1 construct: expressed in transfected cells
Format: cell-based

T1 sequence (Q15858 whole entry): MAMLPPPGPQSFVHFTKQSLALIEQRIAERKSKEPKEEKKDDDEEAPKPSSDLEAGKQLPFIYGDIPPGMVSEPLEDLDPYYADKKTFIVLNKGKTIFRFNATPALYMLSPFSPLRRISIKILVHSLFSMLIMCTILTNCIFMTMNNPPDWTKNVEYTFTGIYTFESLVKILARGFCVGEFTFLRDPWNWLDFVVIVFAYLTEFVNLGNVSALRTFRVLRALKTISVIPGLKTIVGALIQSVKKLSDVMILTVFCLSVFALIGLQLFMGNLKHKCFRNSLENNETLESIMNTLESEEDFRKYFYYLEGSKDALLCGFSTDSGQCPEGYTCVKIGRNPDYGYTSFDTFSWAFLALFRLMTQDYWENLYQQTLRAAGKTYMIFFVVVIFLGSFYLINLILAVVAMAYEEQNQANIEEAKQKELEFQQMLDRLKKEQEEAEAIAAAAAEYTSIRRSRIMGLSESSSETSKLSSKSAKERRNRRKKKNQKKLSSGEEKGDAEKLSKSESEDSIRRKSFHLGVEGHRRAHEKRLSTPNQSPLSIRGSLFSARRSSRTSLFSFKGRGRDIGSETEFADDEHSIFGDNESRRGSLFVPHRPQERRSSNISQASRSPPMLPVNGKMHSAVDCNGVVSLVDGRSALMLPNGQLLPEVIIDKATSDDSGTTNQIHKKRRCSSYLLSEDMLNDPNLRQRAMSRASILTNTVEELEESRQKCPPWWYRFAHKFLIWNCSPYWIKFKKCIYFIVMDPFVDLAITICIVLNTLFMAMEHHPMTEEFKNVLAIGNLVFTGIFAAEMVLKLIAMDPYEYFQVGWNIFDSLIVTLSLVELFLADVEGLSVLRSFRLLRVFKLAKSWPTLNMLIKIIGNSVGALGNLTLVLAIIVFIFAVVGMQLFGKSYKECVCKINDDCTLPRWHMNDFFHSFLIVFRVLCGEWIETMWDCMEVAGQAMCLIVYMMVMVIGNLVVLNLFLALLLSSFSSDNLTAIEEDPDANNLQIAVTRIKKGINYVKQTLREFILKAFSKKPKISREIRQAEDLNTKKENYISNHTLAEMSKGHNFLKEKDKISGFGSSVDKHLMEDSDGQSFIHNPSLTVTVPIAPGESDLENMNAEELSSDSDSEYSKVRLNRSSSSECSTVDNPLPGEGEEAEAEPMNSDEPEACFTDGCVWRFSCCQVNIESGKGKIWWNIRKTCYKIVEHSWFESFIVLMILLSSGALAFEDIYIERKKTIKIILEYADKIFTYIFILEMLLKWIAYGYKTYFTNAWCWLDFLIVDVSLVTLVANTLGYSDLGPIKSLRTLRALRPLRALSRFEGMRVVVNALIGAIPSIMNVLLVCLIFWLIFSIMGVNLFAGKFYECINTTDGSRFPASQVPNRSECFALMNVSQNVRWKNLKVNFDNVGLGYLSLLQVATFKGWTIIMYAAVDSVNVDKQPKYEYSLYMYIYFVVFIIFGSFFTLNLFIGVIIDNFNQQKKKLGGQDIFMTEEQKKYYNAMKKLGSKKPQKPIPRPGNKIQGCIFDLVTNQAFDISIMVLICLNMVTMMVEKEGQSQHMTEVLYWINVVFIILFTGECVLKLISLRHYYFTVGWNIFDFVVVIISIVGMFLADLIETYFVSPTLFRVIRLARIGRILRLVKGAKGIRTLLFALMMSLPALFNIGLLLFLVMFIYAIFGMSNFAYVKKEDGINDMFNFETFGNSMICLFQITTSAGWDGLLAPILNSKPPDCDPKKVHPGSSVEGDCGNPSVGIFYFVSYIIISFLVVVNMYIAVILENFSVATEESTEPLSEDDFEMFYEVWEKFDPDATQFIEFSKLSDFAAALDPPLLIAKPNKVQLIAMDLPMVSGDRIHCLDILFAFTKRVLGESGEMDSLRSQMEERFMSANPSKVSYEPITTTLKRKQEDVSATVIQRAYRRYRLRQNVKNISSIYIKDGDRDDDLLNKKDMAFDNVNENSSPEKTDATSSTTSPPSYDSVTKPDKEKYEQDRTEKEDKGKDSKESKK

In order of rising IC50:
1. O=S(=O)(Nc1ncns1)c1cc(Cl)c(Oc2ccc(F)cc2-c2ccn[nH]2)cc1F [Example 620, 5-chloro-2-fluoro-4-[4-fluoro-2-(1H-pyrazol-5-yl)phenoxy]-N-1,2,4-thiadiazol-5-ylbenzenesulfonamide]  4.8 nM
2. Cc1[nH]ncc1-c1cc(Cl)ccc1Oc1cc(F)c(S(=O)(=O)Nc2ncns2)cc1F [Example 635, 4-[4-chloro-2-(5-methyl-1H-pyrazol-4-yl)phenoxy]-2,5-difluoro-N-1,2,4-thiadiazol-5-ylbenzenesulfonamide]  6.3 nM
3. Nc1ncccc1-c1cc(Cl)ccc1Oc1cc(F)c(S(=O)(=O)Nc2ncns2)cc1Cl [Example 618, 4-[2-(2-aminopyridin-3-yl)-4-chlorophenoxy]-5-chloro-2-fluoro-N-1,2,4-thiadiazol-5-ylbenzenesulfonamide]  11 nM
4. Nc1cc(-c2cc(F)ccc2Oc2cc(F)c(S(=O)(=O)Nc3ncns3)cc2F)ccn1 [Example 634, 4-[2-(2-aminopyridin-4-yl)-4-fluorophenoxy]-2,5-difluoro-N-1,2,4-thiadiazol-5-ylbenzenesulfonamide]  11 nM
5. Cn1nccc1-c1cc(F)ccc1Oc1cc(F)c(S(=O)(=O)Nc2cscn2)cc1Br [Example 625, 5-bromo-2-fluoro-4-[4-fluoro-2-(1-methyl-1H-pyrazol-5-yl)phenoxy]-N-1,3-thiazol-4-ylbenzenesulfonamide]  18 nM
6. O=S(=O)(Nc1ncns1)c1cc(F)c(Oc2ccc(C(F)(F)F)cc2C2CCOCC2)cc1F [Example 633, 2,5-difluoro-4-[2-(tetrahydro-2H-pyran-4-yl)-4-(trifluoromethyl)phenoxy]-N-1,2,4-thiadiazol-5-ylbenzenesulfonamide]  27 nM
7. Nc1cccc(-c2cc(F)ccc2Oc2cc(F)c(S(=O)(=O)Nc3ncns3)cc2Cl)n1 [Example 617, 4-[2-(6-aminopyridin-2-yl)-4-fluorophenoxy]-5-chloro-2-fluoro-N-1,2,4-thiadiazol-5-ylbenzenesulfonamide]  30 nM
8. O=S(=O)(Nc1ncns1)c1cc(Cl)c(Oc2ccc(Cl)cc2C2CNC2)cc1F [Example 619, 4-(2-azetidin-3-yl-4-chlorophenoxy)-5-chloro-2-fluoro-N-1,2,4-thiadiazol-5-ylbenzenesulfonamide]  45 nM
9. O=S(=O)(Nc1ccc(F)cn1)c1cc(Cl)c(Oc2ccc(Cl)cc2C2CCNCC2)cc1F [Example 623, 5-chloro-4-(4-chloro-2-piperidin-4-ylphenoxy)-2-fluoro-N-(5-fluoropyridin-2-yl)benzenesulfonamide]  46 nM
10. Cn1nccc1-c1cc(F)ccc1Oc1cc(F)c(S(=O)(=O)Nc2ncns2)cc1Cl [Example 621, 5-chloro-2-fluoro-4-(4-fluoro-2-(1-methyl-1H-pyrazol-5-yl)phenoxy)-N-(1,2,4-thiadiazol-5-yl)benzenesulfonamide]  75 nM
11. O=S(=O)(Nc1cscn1)c1cc(F)c(Oc2ccc(Cl)cc2-c2cn[nH]c2)cc1F [Example 605, 4-[4-chloro-2-(1H-pyrazol-4-yl)phenoxy]-2,5-difluoro-N-1,3-thiazol-4-ylbenzenesulfonamide]  100 nM
12. O=S(=O)(Nc1ncns1)c1cc(F)c(Oc2ccc(C(F)(F)F)cc2-c2cnccn2)cc1F [Example 632, 2,5-difluoro-4-[2-pyrazin-2-yl-4-(trifluoromethyl)phenoxy]-N-1,2,4-thiadiazol-5-ylbenzenesulfonamide]  100 nM
13. Cn1nccc1-c1cc(F)ccc1Oc1cc(F)c(S(=O)(=O)Nc2ncc(Cl)s2)cc1F [Example 613, N-(5-chloro-1,3-thiazol-2-yl)-2,5-difluoro-4-[4-fluoro-2-(1-methyl-1H-pyrazol-5-yl)phenoxy]benzenesulfonamide]  110 nM
14. Cc1cc(S(=O)(=O)Nc2cscn2)c(F)cc1Oc1ccc(F)cc1-c1ccnn1C [Example 626, 2-fluoro-4-[4-fluoro-2-(1-methyl-1H-pyrazol-5-yl)phenoxy]-5-methyl-N-1,3-thiazol-4-ylbenzenesulfonamide]  120 nM
15. Cn1nccc1-c1cc(Cl)ccc1Oc1cc(F)c(S(=O)(=O)Nc2cscn2)cc1F [Example 606, 4-[4-chloro-2-(1-methyl-1H-pyrazol-5-yl)phenoxy]-2,5-difluoro-N-1,3-thiazol-4-ylbenzenesulfonamide]  130 nM
16. CCc1cc(S(=O)(=O)Nc2cscn2)c(F)cc1Oc1ccc(F)cc1-c1ccnn1C [Example 627, 5-ethyl-2-fluoro-4-[4-fluoro-2-(1-methyl-1H-pyrazol-5-yl)phenoxy]-N-1,3-thiazol-4-ylbenzenesulfonamide]  160 nM
17. O=S(=O)(Nc1ncc(Cl)s1)c1cc(F)c(Oc2ccc(F)cc2-c2cn[nH]c2)cc1F [Example 614, N-(5-chloro-1,3-thiazol-2-yl)-2,5-difluoro-4-[4-fluoro-2-(1H-pyrazol-4-yl)phenoxy]benzenesulfonamide]  180 nM
18. N#Cc1cc(S(=O)(=O)Nc2cscn2)ccc1Oc1ccc(C(F)(F)F)cc1-c1cn[nH]c1 [Example 598, 3-cyano-4-[2-(1H-pyrazol-4-yl)-4-(trifluoromethyl)phenoxy]-N-1,3-thiazol-4-ylbenzenesulfonamide]  230 nM
19. Cn1nccc1-c1ccccc1Oc1ccc(S(=O)(=O)Nc2cscn2)cc1I [Example 629, 3-iodo-4-[2-(1-methyl-1H-pyrazol-5-yl)phenoxy]-N-1,3-thiazol-4-ylbenzenesulfonamide]  240 nM
20. N#Cc1cncc(-c2cc(C(F)(F)F)ccc2Oc2cc(F)c(S(=O)(=O)Nc3ncns3)cc2Cl)c1 [Example 616, 5-chloro-4-[2-(5-cyanopyridin-3-yl)-4-(trifluoromethyl)phenoxy]-2-fluoro-N-1,2,4-thiadiazol-5-ylbenzenesulfonamide]  280 nM
21. N#Cc1cc(S(=O)(=O)Nc2cscn2)ccc1Oc1ccc(OC(F)(F)F)cc1-c1cn[nH]c1 [Example 599, 3-cyano-4-[2-(1H-pyrazol-4-yl)-4-(trifluoromethoxy)phenoxy]-N-1,3-thiazol-4-ylbenzenesulfonamide]  300 nM
22. Cn1nccc1-c1cc(Cl)ccc1Oc1ccc(S(=O)(=O)Nc2ccc(F)cn2)cc1C#N [Example 608, 4-[4-chloro-2-(1-methyl-1H-pyrazol-5-yl)phenoxy]-3-cyano-N-(5-fluoropyridin-2-yl)benzenesulfonamide]  400 nM
23. O=S(=O)(Nc1cscn1)c1ccc(Oc2ccc(Cl)cc2-c2cn[nH]c2)c(F)c1 [Example 611, 4-[4-chloro-2-(1H-pyrazol-4-yl)phenoxy]-3-fluoro-N-1,3-thiazol-4-ylbenzenesulfonamide]  520 nM
24. O=S(=O)(Nc1cscn1)c1ccc(Oc2ccc(OC(F)(F)F)cc2-c2cn[nH]c2)c(F)c1 [Example 612, 3-fluoro-4-[2-(1H-pyrazol-4-yl)-4-(trifluoromethoxy)phenoxy]-N-1,3-thiazol-4-ylbenzenesulfonamide]  540 nM
25. O=S(=O)(Nc1cscn1)c1cc(F)c(Oc2ccc(Cl)cc2C2CNC2)cc1F [Example 604, 4-(2-azetidin-3-yl-4-chlorophenoxy)-2,5-difluoro-N-1,3-thiazol-4-ylbenzenesulfonamide]  820 nM
26. Cn1nccc1-c1cc(C(F)(F)F)ncc1Oc1ccc(S(=O)(=O)Nc2cscn2)cc1C#N [Example 601, 3-cyano-4-{[4-(1-methyl-1H-pyrazol-5-yl)-6-(trifluoromethyl)pyridin-3-yl]oxy}-N-1,3-thiazol-4-ylbenzenesulfonamide]  940 nM
27. Cc1cc(S(=O)(=O)Nc2cscn2)ccc1Oc1ccccc1-c1ccnn1C [Example 628, 3-methyl-4-[2-(1-methyl-1H-pyrazol-5-yl)phenoxy]-N-1,3-thiazol-4-ylbenzenesulfonamide]  1000 nM
28. Cn1nccc1-c1cc(Cl)ccc1Oc1ccc(S(=O)(=O)Nc2ncsc2F)cc1C#N [Example 602, 4-[4-chloro-2-(1-methyl-1H-pyrazol-5-yl)phenoxy]-3-cyano-N-(5-fluoro-1,3-thiazol-4-yl)benzenesulfonamide]  1500 nM
29. Cn1nc(C(F)(F)F)cc1-c1ccc(Oc2ccc(S(=O)(=O)Nc3ncc(F)s3)cc2F)cc1 [Example 609, 3-fluoro-N-(5-fluoro-1,3-thiazol-2-yl)-4-{4-[1-methyl-3-(trifluoromethyl)-1H-pyrazol-5-yl]phenoxy}benzenesulfonamide]  1700 nM
30. Cn1nccc1-c1ccc(C#N)cc1Oc1cc(F)c(S(=O)(=O)Nc2ncc(Cl)s2)cc1F [Example 615, N-(5-chloro-1,3-thiazol-2-yl)-4-[5-cyano-2-(1-methyl-1H-pyrazol-5-yl)phenoxy]-2,5-difluorobenzenesulfonamide]  2000 nM
31. Cn1cc(-c2cc(OC(F)(F)F)ccc2Oc2cc(F)c(S(=O)(=O)Nc3cscn3)cc2F)cn1 [Example 607, 2,5-difluoro-4-[2-(1-methyl-1H-pyrazol-4-yl)-4-(trifluoromethoxy)phenoxy]-N-1,3-thiazol-4-ylbenzenesulfonamide]  2800 nM
32. Cn1nccc1-c1cc(Cl)ccc1Oc1ncc(S(=O)(=O)Nc2cscn2)cc1Cl [Example 631, 5-chloro-6-(4-chloro-2-(1-methyl-1H-pyrazol-5-yl)phenoxy)-N-(thiazol-4-yl)pyridine-3-sulfonamide]  3300 nM
33. Cc1scnc1NS(=O)(=O)c1ccc(Oc2ccccc2-c2ccccc2)c(C#N)c1 [Example 600, 4-(biphenyl-2-yloxy)-3-cyano-N-(5-methyl-1,3-thiazol-4-yl)benzenesulfonamide]  15000 nM

For `Cc1cc(C)n(-c2ccc(Oc3ccc(S(=O)(=O)Nc4nccs4)c(F)c3)cc2)n1` [Example 610, 4-[4-(3,5-Dimethyl-1H-pyrazol-1-yl)phenoxy]-2-fluoro-N-1,3-thiazol-2-ylbenzenesulfonamide], the IC50 was over 1000 nM.
`Nc1nccc(-c2cc(F)ccc2Oc2cc(F)c(S(=O)(=O)Nc3ncc(Cl)s3)cc2F)n1` [Example 622, 4-[2-(2-aminopyrimidin-4-yl)-4-fluorophenoxy]-N-(5-chloro-1,3-thiazol-2-yl)-2,5-difluorobenzenesulfonamide] gave an IC50 of over 1000 nM.
For `Cc1scnc1NS(=O)(=O)c1cc(Cl)c(Oc2ccc(F)cc2-c2ccnn2C)cc1F` [Example 630, 5-chloro-2-fluoro-4-(4-fluoro-2-(1-methyl-1H-pyrazol-5-yl)phenoxy)-N-(5-methylthiazol-4-yl)benzenesulfonamide], the IC50 was over 1000 nM.
